≈ marks a conversion by molar mass, not a printed value. Where two headings read alike, the source gives them in different places.
What was measured:
ruminal organisms = assay: Ruminal fluid batch culture (artificial rumen): growth inhibition / methane formation; assay type: cell-based, steers
RFA-P synthase = molecular target: T1, RFA-P synthase (Archaeoglobus fulgidus, UniProt O28190); assay: biochemical; assay type: biochemical
T1 sequence (O28190 1-313): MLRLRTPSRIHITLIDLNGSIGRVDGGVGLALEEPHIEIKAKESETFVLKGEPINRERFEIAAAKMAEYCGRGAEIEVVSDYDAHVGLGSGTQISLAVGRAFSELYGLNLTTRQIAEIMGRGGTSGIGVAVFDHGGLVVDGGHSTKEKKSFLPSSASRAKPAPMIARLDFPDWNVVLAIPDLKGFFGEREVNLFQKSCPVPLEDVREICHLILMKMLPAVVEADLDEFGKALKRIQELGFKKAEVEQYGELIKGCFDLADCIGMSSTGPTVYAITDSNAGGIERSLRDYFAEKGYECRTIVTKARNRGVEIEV

M. marburgensis [1] = assay: microbe, parasite or virus in culture; assay type: cell-based; conditions: for inhibition of growth of Methanothermobacter marburgensis (figure legend): FIG. 4: 1000 μM A2, 300 μM and 500 μM A4; for MIC: read-out: Inhibition of Growth M. marburgensis: concentration of compound which completely inhibited growth
Moorella thermoacetica = assay: Inhibition of growth of acetogen Moorella thermoacetica; assay type: cell-based; conditions: FIG. 5
M. marburgensis [2] = assay type: cell-based
[3] = inhibition constant, substrates at saturating concentrations, first tested at 1 mM, competitive inhibition fit, read-out: Ki
[4] = total methane over 48 hours, compound at (100), 600 micromoles without inhibitor
[5] = Methanothermobacter marburgensis, H2/CO2-grown, 65° C., OD 580 nm, words refer to 1 millimolar
[6] = Methanothermobacter marburgensis

| SMILES | Ki (RFA-P synthase; [3]) [µM] | MIC (M. marburgensis [1]; [5]) [µM] | further results |
| --- | --- | --- | --- |
| O=C(O)c1ccc(NCCO)cc1 [4-(2-hydroxyethylamino)benzoate] | – | – | methane production, % of the control level (ruminal organisms; artificial rumen, 9 mM compound): 2.5% |
| CCNc1ccc(C(=O)O)cc1 [4-(ethylamino)benzoate] | – | – | methane production, % of the control level (ruminal organisms): 2.5% |
| CC(C)Nc1ccc(C(=O)O)cc1 [4-(isopropylamino)benzoic acid] | – | – | inhibition of RFA-P synthase (figure legend) (RFA-P synthase): inhibition of RFA-P synthase; inhibition of methanogen growth (figure legend) (M. marburgensis [1]; FIG. 7A: M. marburgensis, 15, 25, 75 and 90 micromoles of compound, OD 580 nm): inhibition of methanogen growth |
| O=C(O)c1ccc(NCc2ccccn2)cc1 [4-[(2-pyridylmethyl)amino]benzoic acid] | – | – | concentration that completely arrests growth of and methane formation by M. marburgensis (M. marburgensis [1]): 100 mM; reversal of inhibition by supplementing the medium with pABA (M. marburgensis [1]; M. marburgensis): fully reversed |
| NCc1ccc(B(O)O)cc1 [Compound A2] | 140 | – | inhibition of growth of Methanothermobacter marburgensis (figure legend) (M. marburgensis [1]): inhibit growth; inhibition of growth of Moorella thermoacetica (figure legend) (Moorella thermoacetica): inability |
| CC(C)Nc1ccc(C(=O)O)cc1 [Compound A3] | 9 | 100 (≈ 17.9 µg/mL) | Methane Produced (M. marburgensis [2]; [4]): 0.01 μ moles |
| CC(C)CNc1ccc(C(=O)O)cc1 [Compound A4] | 10 | 500 (≈ 96.6 µg/mL) | Methane Produced (M. marburgensis [2]; total methane over 48 hours, compound at (500), 600 micromoles without inhibitor): 0.02 μ moles; inhibition of RFA-P synthase (figure legend) (RFA-P synthase): inhibit RFA-P synthase; inhibition of growth of Methanothermobacter marburgensis (figure legend) (M. marburgensis [1]): inhibit growth; inhibition of growth of Moorella thermoacetica (figure legend) (Moorella thermoacetica): inability |
| O=C(O)c1ccc(NCCO)cc1 [Compound A5] | 17 | 300 (≈ 54.4 µg/mL) | – |
| O=C(O)c1ccc(NCc2ccco2)cc1 [Compound A6] | 7.5 | 300 (≈ 65.2 µg/mL) | – |
| NCc1ccc(C(=O)O)cc1 [Compound A7, 4-(aminomethyl)benzoic acid] | 75 | – | Methane Produced (M. marburgensis [2]): 0.07 μ moles; inhibition of RFA-P synthase (figure legend) (RFA-P synthase): inhibit RFA-P synthase |
| Nc1ccc(CC(=O)O)cc1 [Compound A9, (4-aminophenyl)acetic acid] | 60 | – | MIC (M. marburgensis [1]; [6]): 1000 µM (≈ 151 µg/mL) |
| CCOC(=O)c1ccc(NC(C)C)cc1 [Compound A11] | 130 | 1000 (≈ 207 µg/mL) | – |
| Nc1ccc(S(=O)(=O)O)cc1 [Compound A12] | 7 | – | – |
| CC(C)OP(=O)(O)c1ccc(N)cc1 [Compound A13] | – | – | Ki (RFA-P synthase): 15 µM; MIC (M. marburgensis [1]; [6]): 1000 µM (≈ 215 µg/mL) |
| CCCCOP(=O)(O)c1ccc(N)cc1 [Compound A14] | – | – | Ki (RFA-P synthase): 25 µM |
| OCc1ccc(B(O)O)cc1 [Compound A15] | 9 | – | MIC (M. marburgensis [1]; [6]): 100 µM (≈ 15.2 µg/mL) |
| Cc1cc(C(=O)O)ccc1NC(C)C [Compound A16] | 23 | 300 (≈ 58 µg/mL) | – |
| CCNc1ccc(C(=O)O)cc1 [Compound A19] | – | – | Ki (RFA-P synthase): 155 µM; MIC (M. marburgensis [1]; [6]): 300 µM (≈ 49.6 µg/mL) |
| CCCNc1ccc(C(=O)O)cc1 [Compound A20] | 20 | 600 (≈ 108 µg/mL) | Methane Produced (M. marburgensis [2]; total methane over 48 hours, compound at (600), 600 micromoles without inhibitor): 0.05 μ moles; inhibition of RFA-P synthase (figure legend) (RFA-P synthase): inhibit RFA-P synthase |
| CCCCCCNc1ccc(C(=O)O)cc1 [Compound A21] | – | 500 (≈ 111 µg/mL) | – |
| CC(Nc1ccc(C(=O)O)cc1)C(F)(F)F (centres unmarked) [Compound A22] | 59 | – | – |
| CC(C)CCNc1ccc(C(=O)O)cc1 [Compound A24] | – | 1000 (≈ 207 µg/mL) | – |

| SMILES | Ki (RFA-P synthase; [3]) [µM] | MIC (M. marburgensis [1]; [5]) [µM] | further results |
| --- | --- | --- | --- |
| O=C(O)c1ccc(NC2CCCC2)cc1 [Compound A25] | – | 1000 (≈ 205 µg/mL) | – |
| O=C(O)c1ccc(NCc2ccoc2)cc1 [Compound A26] | 84 | 100 (≈ 21.7 µg/mL) | Methane Produced (M. marburgensis [2]; [4]): 0.06 μ moles |
| O=C(O)c1ccc(NCc2cccs2)cc1 [Compound A27] | 72 | – | – |
| O=C(O)c1ccc(NCc2ccsc2)cc1 [Compound A28] | 55 | 1000 (≈ 233 µg/mL) | – |
| O=C(O)c1ccc(NCc2ccccc2)cc1 [Compound A29] | 51 | 500 (≈ 114 µg/mL) | – |
| O=C(O)c1ccc(NCc2c(F)c(F)c(F)c(F)c2F)cc1 [Compound A30] | – | 500 (≈ 159 µg/mL) | – |
| O=C(O)c1ccc(NCc2ccccc2O)cc1 [Compound A31] | 705 | 1000 (≈ 243 µg/mL) | – |
| O=C(O)c1ccc(NCc2ccc(O)cc2)cc1 [Compound A32] | – | 300 (≈ 73 µg/mL) | – |
| O=C(O)c1ccc(NCc2ccccn2)cc1 [Compound A33] | 19 | 0.1 (≈ 0.0228 µg/mL) | Methane Produced (M. marburgensis [2]; total methane over 48 hours, compound at (0.1), 600 micromoles without inhibitor): 0.08 μ moles |
| Cc1cccc(CNc2ccc(C(=O)O)cc2)n1 [Compound A34] | 19 | – | – |
| O=C(O)c1ccc(NCc2ccc3ccccc3n2)cc1 [Compound A35] | – | 1000 (≈ 278 µg/mL) | – |
| O=C(O)c1ccc(NCc2ccncc2)cc1 [Compound A36] | – | 1000 (≈ 228 µg/mL) | – |
| Nc1ccc(C(=O)O)cc1O [Compound A38] | – | 500 (≈ 76.6 µg/mL) | – |
| Nc1cc(C(=O)O)ccn1 [Compound A39] | – | 1000 (≈ 138 µg/mL) | – |
| O=C(O)c1ccc(CO)cc1 [Compound A40] | 270 | – | – |
| CCC(C(=O)O)c1ccc(N)cc1 (centres unmarked) [Compound A41] | – | 500 (≈ 89.6 µg/mL) | – |
| O=C(O)Cc1ccc(NCc2ccco2)cc1 [Compound A42] | – | 1000 (≈ 231 µg/mL) | – |
| Nc1cccc(CC(=O)O)c1 [Compound A43] | – | 500 (≈ 75.6 µg/mL) | – |
| O=C(O)Cc1ccc(O)cc1 [Compound A44] | – | – | Ki (RFA-P synthase): 115 µM |
| Cc1cc(S(=O)(=O)O)ccc1N [Compound A45] | – | – | MIC (M. marburgensis [1]; [6]): 500 µM (≈ 93.6 µg/mL) |
| CCOP(=O)(OCC)c1ccc(NCC(C)C)cc1 [Compound A47] | – | – | MIC (M. marburgensis [1]): 500 µM (≈ 143 µg/mL) |
| CCOP(=O)(O)c1ccc(N)cc1 [Compound A48] | – | – | Ki (RFA-P synthase): 65 µM |

| SMILES | Ki (RFA-P synthase; [3]) [µM] | MIC (M. marburgensis [1]; [5]) [µM] | further results |
| --- | --- | --- | --- |
| Nc1ccc(P(=O)(O)O)cc1 [Compound A49] | – | – | Ki (RFA-P synthase): 85 µM |
| CC(C)Nc1ccc(P(=O)(O)OC(C)C)cc1 [Compound A50] | – | – | MIC (M. marburgensis [1]; [6]): 100 µM (≈ 25.7 µg/mL) |
| CC(C)OP(=O)(O)c1ccc(NCc2ccco2)cc1 [Compound A51] | – | – | MIC (M. marburgensis [1]; [6]): 100 µM (≈ 29.5 µg/mL) |
| CC(C)OP(=O)(O)c1ccc(NCc2cccnc2)cc1 [Compound A52] | – | – | MIC (M. marburgensis [1]; [6]): 1000 µM (≈ 306 µg/mL) |
| CCCCOP(=O)(O)c1ccc(NC(C)C)cc1 [Compound A53] | – | – | Ki (RFA-P synthase): 25 µM; MIC (M. marburgensis [1]; [6]): 300 µM (≈ 81.4 µg/mL) |
| CCCCOP(=O)(O)c1ccc(NCc2ccccn2)cc1 [Compound A55] | – | – | Ki (RFA-P synthase): 25 µM; MIC (M. marburgensis [1]; [6]): 100 µM (≈ 32 µg/mL) |
| CNc1ccc(C(=O)O)cc1 [Compound A56] | 145 | – | – |
| CCCCNc1ccc(C(=O)O)cc1 [Compound A58] | – | – | MIC (M. marburgensis [1]; [6]): 1000 µM (≈ 193 µg/mL) |
| CCCOC(=O)c1ccc(NC(C)C)cc1 [Compound A65] | 130 | – | – |
| CCCCOC(=O)c1ccc(NC(C)C)cc1 [Compound A66] | 190 | 1000 (≈ 235 µg/mL) | – |
| OB(O)c1ccncc1 [Compound A74] | 200 | – | – |
| Nc1ccc(/C=C/C(=O)O)cc1 [Compound A80] | – | 500 (≈ 81.6 µg/mL) | – |
| O=C(O)[C@H]1CC[C@@H](NCc2ccco2)CC1 [Compound B1] | 63 | 0.1 (≈ 0.0223 µg/mL) | – |
| O=C(O)[C@H]1CC[C@H](NCc2ccco2)CC1 [Compound B2] | – | 500 (≈ 112 µg/mL) | – |
| CC(C)CN[C@H]1CC[C@@H](C(=O)O)CC1 [Compound B3] | 44 | – | – |
| N[C@H]1CC[C@H](C(=O)O)CC1 [Compound B7] | – | 500 (≈ 71.6 µg/mL) | – |
| O=P(O)(O)OC[C@H]1N[C@@H](c2ccccc2)[C@H](O)[C@@H]1O [Compound C1] | 30 | 500 (≈ 145 µg/mL) | – |
| OCc1ccc([C@@H]2N[C@H](CO)[C@@H](O)[C@H]2O)cc1 [Compound C4] | – | 1000 (≈ 239 µg/mL) | – |
| O=C(O)c1c[nH]cn1 [Compound D3] | – | – | MIC (M. marburgensis [1]; [6]): 1000 µM (≈ 112 µg/mL) |
| Nc1nc(CC(=O)O)cs1 [Compound D6] | – | 500 (≈ 79.1 µg/mL) | – |
| Nc1n[nH]c(C(=O)O)n1 [Compound D7] | – | 1000 (≈ 128 µg/mL) | – |

From patent US20030219467A1, “Method for the inhibition of methanogensis” (The Board of Regents of the University of Nebraska, priority 2001, published 2003)
